According to ChEMBL document CHEMBL1201862, “PubChem BioAssay data set” (2004):
Calls of active or inactive are those of the source.

Legend:
Beta-galactosidase = Beta-galactosidase (Escherichia coli, UniProt Q8VNN2); assay: Dose response counterscreen for EBI2 assay utilizing the enzyme, b-galactosidase.; format: functional
[1] = blockers of HIV-1 envelope-mediated cell-cell fusion – cherry-pick, dose response (AID 652057); format: functional, cell-based
BJ [2] = assay: growth inhibition of engineered Ras-driven BJ cells – cell-based, alamar blue fluorescence, cherrypicked samples, dose response (AID 2631); format: functional; conditions: Homo sapiens;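 further: confirmatory dose-response assay in RAS-dependent BJ fibroblasts engineered with TERT, LT and ST, with cytotoxicity read by fluorescence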
[3] = off-target signal loss in HeLa-CEM21 co-culture – HeLa F-luc CTL cells, cherry-picked, counter-screen for HIV-1 Env fusion inhibitor project, dose response (AID 652040); format: functional, cell-based;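 further: potency for signal decrease marking cytotoxic or nonspecific inhibition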
[4] = viability loss in CEM21 cells – cell-based, CellTiter-Glo luminescence, cherry-picked, cytotoxicity control for viral fusion inhibitor project, dose response (AID 652042); format: functional;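 further: potency for signal decrease meaning cytotoxicity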
BJ [5] = assay: cells; format: functional, cell-based; conditions: Homo sapiens
BJ [6] = assay: BJ-TERT-LT-ST fibroblast viability loss – cell-based, RAS-independent, luminescence, dose response (AID 1935); format: functional; conditions: Homo sapiens;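 further: BJ fibroblasts immortalized with TERT plus LT and ST oncogenes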
[7] = HIV-1 AD8 envelope cell-cell fusion blockers – cherry-pick, dose response (AID 652062); format: functional, cell-based;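 further: luciferase signal from cell-cell fusion driven by HIV-1 clade B AD8 Env; potency is for inhibitors of fusion seen as a drop in luminescence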
BJ [8] = assay: BJ-TERT fibroblast viability loss – cell-based, RAS-independent, luminescence, dose response (AID 1933); format: functional; conditions: Homo sapiens
[9] = DRD fibroblast viability loss – cell-based, non-viral oncogenic, luminescence, dose response (AID 1934); format: functional; conditions: Homo sapiens
[10] = blockers of HIV-1 ZM109 envelope-driven cell-cell fusion – HeLa effector, CEM target cells, luciferase, cherry-pick, dose response (AID 652058); format: functional, cell-based;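 further: luciferase signal from HIV-1 Env mediated cell-cell fusion of effector and target cells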
Protein RecA = target: T1, Protein RecA (Mycobacterium tuberculosis, UniProt P9WHJ3); assay: Fluorescence Cell-Free Homogeneous Dose Retest to Identify Inhibitors of RecA-Intein Splicing Activity. [Related pubchem assays (depositor defined):AID2097, AID2223, AID489010, AID492950]; format: functional
T1 sequence (P9WHJ3 whole entry): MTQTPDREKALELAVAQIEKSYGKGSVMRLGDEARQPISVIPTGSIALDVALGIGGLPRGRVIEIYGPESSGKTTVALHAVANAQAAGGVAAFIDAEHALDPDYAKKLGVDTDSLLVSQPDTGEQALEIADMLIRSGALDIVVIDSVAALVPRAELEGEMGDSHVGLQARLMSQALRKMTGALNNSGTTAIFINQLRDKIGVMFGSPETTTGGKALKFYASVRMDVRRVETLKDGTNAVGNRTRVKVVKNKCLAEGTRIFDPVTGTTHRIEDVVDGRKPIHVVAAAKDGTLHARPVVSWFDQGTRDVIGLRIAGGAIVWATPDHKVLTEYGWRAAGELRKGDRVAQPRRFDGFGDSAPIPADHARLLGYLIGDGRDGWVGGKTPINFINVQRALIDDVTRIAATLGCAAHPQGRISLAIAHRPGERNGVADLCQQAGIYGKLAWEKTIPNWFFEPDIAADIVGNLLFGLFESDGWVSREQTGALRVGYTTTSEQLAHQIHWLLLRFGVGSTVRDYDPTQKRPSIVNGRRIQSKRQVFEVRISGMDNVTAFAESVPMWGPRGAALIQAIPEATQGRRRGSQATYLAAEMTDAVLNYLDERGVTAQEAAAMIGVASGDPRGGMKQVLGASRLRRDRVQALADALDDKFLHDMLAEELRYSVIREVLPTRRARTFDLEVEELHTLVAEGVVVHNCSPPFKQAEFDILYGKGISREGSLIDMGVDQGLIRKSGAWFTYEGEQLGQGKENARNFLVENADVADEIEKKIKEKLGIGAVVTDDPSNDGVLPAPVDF

[11] = target: T2, Replicative DNA helicase DnaB (Mycobacterium tuberculosis, UniProt P9WMR3); assay: DnaB intein splicing inhibitors, dose response, biochemical, cell-free fluorescence (AID 449749); format: functional
T2 sequence (P9WMR3 whole entry): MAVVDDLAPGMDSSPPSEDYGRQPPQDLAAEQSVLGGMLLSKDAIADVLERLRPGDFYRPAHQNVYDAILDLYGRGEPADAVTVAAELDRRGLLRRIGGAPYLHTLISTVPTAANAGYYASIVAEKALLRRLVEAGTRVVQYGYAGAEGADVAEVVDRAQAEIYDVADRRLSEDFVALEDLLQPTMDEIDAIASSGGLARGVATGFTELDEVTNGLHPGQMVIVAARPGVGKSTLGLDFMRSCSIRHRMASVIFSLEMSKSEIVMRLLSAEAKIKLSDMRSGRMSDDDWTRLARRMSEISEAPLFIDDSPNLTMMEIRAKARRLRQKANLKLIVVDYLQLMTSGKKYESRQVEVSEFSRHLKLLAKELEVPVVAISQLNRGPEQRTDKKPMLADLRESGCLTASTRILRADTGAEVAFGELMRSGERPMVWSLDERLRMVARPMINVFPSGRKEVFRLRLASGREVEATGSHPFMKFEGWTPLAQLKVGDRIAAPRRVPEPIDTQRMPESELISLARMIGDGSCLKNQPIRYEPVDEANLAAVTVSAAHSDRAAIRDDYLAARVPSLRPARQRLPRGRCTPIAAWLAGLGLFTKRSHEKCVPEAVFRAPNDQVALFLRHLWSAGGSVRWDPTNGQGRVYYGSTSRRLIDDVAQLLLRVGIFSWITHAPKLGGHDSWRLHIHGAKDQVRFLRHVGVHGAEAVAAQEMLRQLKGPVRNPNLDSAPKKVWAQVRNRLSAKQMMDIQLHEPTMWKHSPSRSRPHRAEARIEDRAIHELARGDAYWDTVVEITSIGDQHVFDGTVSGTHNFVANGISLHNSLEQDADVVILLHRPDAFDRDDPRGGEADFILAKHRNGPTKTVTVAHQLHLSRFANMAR

[12] = viability of uninfected HEp-2 cells – cell-based, HTS, cytotoxicity control for RSV inhibitor project, dose response (AID 2410); format: functional; conditions: human respiratory syncytial virus
[13] = acridine orange displacement from DNA – biochemical, fluorescence polarization, cherry-pick, artefact control for RAD54 inhibitor project, dose response (AID 651673); format: functional
[14] = target: T3, DNA repair protein RAD52 homolog (Homo sapiens, UniProt P43351); format: functional, biochemical
T3 sequence (P43351 whole entry): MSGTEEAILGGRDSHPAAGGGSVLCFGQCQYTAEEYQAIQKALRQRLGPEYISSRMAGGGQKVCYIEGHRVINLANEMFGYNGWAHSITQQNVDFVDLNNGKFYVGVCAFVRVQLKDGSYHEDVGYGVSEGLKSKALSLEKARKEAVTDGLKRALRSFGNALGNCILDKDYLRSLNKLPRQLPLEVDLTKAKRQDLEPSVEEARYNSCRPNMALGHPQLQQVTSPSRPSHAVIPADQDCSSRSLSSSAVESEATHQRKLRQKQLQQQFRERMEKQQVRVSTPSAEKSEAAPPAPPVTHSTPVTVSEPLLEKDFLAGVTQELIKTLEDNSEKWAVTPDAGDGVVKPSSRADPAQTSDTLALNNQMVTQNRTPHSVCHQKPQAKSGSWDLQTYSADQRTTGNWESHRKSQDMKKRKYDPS

[15] = Luminescence Cell-Based Dose Response HTS to Identify Activators of Luciferase Translation or Activity in H4 […] Cells. [Related pubchem assays: 1829 (Project Summary), 1814 (Primary HTS)]; format: functional
[16] = Counterscreen for activators of the function of SWI/SNF related, matrix associated, actin dependent regulator of chromatin, subfamily a, member 2 (SMARCA2, BRM): Luminescence-based cell-based high throughput dose response assay to identify non-selective compounds using the VP16 reporter assay.; format: functional
H4 = assay: Luminescence Cell-Based Dose Response HTS to Identify Activators of 5'UTR Stem-Loop Driven Prion Protein mRNA Translation in H4 Neuroglioblastoma Cells. [Related pubchem assays: 1829 (Project Summary), 1814 (Primary HTS)]; format: functional; conditions: Homo sapiens
[17] = target: SWI/SNF-related matrix-associated actin-dependent regulator of chromatin subfamily A member 2 (Homo sapiens, UniProt P51531); assay: Luminescence-based cell-based high throughput dose response assay to identify activators of the function of SWI/SNF related, matrix associated, actin dependent regulator of chromatin, subfamily a, member 2 (SMARCA2, BRM).; format: functional
Sequence of SWI/SNF-related matrix-associated actin-dependent regulator of chromatin subfamily A member 2 (P51531 whole entry): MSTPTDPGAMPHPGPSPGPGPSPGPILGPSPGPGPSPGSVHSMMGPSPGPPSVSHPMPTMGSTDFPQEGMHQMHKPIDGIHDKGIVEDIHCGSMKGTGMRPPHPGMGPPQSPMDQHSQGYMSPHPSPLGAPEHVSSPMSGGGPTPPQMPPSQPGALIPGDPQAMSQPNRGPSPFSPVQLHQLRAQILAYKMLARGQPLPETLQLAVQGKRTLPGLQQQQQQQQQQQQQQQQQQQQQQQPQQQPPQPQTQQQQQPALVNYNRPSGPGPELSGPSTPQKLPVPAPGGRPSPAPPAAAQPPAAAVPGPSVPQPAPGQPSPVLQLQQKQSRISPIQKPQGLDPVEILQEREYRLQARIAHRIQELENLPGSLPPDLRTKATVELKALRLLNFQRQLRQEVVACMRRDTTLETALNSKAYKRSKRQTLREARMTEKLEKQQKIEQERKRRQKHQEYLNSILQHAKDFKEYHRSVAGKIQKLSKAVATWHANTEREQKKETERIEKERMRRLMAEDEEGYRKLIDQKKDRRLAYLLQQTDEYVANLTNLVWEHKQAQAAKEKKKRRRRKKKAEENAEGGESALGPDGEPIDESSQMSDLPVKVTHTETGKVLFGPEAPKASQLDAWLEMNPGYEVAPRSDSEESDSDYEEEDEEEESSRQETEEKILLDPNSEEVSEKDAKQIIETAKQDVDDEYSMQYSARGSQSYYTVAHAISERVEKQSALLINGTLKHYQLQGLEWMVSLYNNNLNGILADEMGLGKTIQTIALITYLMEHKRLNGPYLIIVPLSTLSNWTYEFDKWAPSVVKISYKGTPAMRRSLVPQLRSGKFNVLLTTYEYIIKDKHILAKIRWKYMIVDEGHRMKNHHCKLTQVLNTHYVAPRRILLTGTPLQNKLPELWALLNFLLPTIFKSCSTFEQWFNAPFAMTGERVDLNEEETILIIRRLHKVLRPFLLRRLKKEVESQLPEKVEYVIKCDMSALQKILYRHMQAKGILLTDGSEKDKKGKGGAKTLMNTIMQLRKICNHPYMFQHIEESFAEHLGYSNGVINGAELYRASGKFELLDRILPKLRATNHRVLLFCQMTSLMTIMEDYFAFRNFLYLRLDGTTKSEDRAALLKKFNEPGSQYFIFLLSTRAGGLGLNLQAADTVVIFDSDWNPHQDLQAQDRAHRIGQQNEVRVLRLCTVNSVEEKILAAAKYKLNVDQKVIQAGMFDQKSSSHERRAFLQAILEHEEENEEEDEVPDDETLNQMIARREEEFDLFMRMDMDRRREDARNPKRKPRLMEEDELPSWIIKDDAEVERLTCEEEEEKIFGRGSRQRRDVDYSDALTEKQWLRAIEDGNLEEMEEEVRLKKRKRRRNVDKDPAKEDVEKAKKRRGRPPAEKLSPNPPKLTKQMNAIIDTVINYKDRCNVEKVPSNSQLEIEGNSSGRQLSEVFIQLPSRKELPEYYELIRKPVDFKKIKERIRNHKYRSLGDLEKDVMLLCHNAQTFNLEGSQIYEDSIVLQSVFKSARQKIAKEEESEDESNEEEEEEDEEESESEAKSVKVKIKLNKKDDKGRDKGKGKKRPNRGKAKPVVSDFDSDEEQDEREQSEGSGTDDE

[18] = target: T4, DNA repair and recombination protein RAD54-like (Homo sapiens, UniProt Q92698); assay: RAD54 Holliday junction migration blockers – biochemical, fluorescence, cherry-picked samples, dose series, confirmation (AID 651657); format: functional
T4 sequence (Q92698 whole entry): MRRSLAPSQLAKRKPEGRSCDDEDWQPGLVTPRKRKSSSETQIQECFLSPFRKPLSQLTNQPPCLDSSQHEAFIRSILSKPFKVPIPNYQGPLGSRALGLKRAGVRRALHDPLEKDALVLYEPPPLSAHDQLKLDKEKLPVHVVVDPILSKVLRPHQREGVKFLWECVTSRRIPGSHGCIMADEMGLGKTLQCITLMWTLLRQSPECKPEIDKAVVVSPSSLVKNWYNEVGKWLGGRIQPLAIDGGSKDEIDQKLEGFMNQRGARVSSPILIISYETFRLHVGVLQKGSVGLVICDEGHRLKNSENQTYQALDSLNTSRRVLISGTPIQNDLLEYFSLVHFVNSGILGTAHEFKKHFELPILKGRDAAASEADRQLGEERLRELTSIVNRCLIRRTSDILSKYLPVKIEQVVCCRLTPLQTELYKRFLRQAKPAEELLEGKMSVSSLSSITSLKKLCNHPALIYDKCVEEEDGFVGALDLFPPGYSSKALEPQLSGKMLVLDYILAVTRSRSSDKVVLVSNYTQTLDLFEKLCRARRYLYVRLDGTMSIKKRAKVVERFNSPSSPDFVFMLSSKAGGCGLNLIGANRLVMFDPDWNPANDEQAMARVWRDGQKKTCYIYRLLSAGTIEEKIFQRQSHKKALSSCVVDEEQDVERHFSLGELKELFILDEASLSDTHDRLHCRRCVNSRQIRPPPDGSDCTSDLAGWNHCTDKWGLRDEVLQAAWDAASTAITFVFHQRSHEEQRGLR

cells [19] = format: functional, cell-based
cells [20] = format: functional, cell-based; remark: listed apart in the source
[21] = Trypanosoma cruzi growth suppression in host cells – NIH3T3 host cells, beta-gal luminescence, confirmation (AID 2044); format: functional, cell-based;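 further: intracellular parasites grown in NIH/3T3 mouse fibroblasts as host cells; luminescent beta-galactosidase reporter signal from transgenic T. cruzi replicating inside host cells; inhibitors lower the luminescence signal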
[22] = target: Luciferin 4-monooxygenase (Photinus pyralis, UniProt P08659); assay: inhibition of purified Photinus pyralis luciferase – biochemical, luminescence, dose response (AID 1891)
Sequence of Luciferin 4-monooxygenase (P08659 whole entry): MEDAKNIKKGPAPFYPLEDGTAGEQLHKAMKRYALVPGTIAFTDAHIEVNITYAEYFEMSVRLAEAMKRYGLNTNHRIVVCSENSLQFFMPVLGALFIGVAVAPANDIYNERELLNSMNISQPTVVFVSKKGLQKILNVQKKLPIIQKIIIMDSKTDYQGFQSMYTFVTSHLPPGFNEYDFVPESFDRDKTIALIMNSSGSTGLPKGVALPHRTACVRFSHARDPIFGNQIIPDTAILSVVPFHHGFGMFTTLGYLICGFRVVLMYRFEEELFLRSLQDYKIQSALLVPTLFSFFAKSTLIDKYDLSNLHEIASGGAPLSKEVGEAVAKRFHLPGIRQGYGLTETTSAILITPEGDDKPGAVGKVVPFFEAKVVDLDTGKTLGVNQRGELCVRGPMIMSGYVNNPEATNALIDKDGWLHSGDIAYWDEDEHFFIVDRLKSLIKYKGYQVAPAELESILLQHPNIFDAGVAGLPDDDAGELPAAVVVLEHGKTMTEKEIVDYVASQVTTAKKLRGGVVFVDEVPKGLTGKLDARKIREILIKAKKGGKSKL

[23] = NIH3T3 cell viability loss – ATP luminescence, mouse fibroblasts, counter-screen, dose response (AID 2010); format: functional, cell-based;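 further: cells exposed to compound for about 90 hours before reading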
[24] = target: T5, Oxysterols receptor LXR-beta (Homo sapiens, UniProt P55055); format: functional, cell-based;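 further: agonist activity at LXR measured by a cell-based luminescence readout across a dose range, run as a counterscreen for daf-12 agonists; HEK293 cells with Gal4-LXR fusion and GAL4-driven luciferase reporter; potency for activation of Gal4-LXR reporter so compounds are agonists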
T5 sequence (P55055 whole entry): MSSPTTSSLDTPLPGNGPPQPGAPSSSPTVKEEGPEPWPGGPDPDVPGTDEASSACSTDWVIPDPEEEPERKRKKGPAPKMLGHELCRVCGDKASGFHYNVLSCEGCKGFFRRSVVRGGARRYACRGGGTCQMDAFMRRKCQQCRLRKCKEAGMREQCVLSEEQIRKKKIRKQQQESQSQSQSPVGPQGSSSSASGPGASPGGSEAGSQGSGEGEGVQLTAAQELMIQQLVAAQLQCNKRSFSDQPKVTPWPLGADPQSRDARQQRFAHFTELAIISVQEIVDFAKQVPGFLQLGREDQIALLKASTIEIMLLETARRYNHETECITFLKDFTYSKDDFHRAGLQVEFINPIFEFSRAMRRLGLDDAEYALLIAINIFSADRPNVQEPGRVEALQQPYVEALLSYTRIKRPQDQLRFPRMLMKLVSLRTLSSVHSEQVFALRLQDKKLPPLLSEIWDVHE

[25] = Luminescence Cell-Based Dose Confirmation HTS to Identify Inhibitors of Platelet Dense Granule Release. [Related pubchem assays: 1663 (Primary HTS), 1678 (Summary of Project)]; format: functional

Sequence of Beta-galactosidase (Q8VNN2 whole entry, the tested form may be a part): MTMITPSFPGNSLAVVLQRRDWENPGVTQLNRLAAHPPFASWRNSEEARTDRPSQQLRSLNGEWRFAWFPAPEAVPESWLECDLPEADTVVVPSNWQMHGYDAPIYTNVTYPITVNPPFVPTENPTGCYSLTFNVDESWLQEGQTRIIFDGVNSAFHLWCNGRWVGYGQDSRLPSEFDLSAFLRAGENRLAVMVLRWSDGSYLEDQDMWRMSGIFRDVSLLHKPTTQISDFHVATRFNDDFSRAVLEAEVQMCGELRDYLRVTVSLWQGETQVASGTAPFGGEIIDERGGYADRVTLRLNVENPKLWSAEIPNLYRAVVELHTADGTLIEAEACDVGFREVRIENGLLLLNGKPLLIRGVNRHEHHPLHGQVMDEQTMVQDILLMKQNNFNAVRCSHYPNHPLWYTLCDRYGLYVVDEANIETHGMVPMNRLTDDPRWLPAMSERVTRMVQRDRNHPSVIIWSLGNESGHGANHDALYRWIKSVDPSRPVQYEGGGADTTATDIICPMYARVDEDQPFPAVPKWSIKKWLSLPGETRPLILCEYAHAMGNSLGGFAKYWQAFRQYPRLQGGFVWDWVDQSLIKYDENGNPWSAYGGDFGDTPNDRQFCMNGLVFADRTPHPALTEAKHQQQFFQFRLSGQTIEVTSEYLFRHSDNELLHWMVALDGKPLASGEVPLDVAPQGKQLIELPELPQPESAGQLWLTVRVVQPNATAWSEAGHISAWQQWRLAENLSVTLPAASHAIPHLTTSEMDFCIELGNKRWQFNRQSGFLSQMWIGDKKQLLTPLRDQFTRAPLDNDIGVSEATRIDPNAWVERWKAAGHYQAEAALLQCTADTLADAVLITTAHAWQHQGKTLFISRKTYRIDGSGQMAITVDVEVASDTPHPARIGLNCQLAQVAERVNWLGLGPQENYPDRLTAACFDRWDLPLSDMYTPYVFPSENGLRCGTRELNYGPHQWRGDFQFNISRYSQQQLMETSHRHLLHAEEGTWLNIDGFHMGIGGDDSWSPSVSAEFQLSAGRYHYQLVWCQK

O=C(/C=C/c1ccc(Cl)cc1)N1CCN(c2ccccc2[N+](=O)[O-])CC1
IC50 (Beta-galactosidase): > 80 µM (inactive)

COc1ccc2nc(O)c(CN(Cc3cccs3)S(=O)(=O)c3cccc4nsnc34)cc2c1
AC50 [1]: 4.12 µM (active)
EC50 (BJ [2]): 1.62 µM (active)
AC50 [3]: 16.9 µM (active)
AC50 [4]: 38.4 µM (active)
EC50 (BJ [5]): 25.6 µM (inconclusive)
EC50 (BJ [6]): > 150 µM (not active)
AC50 [7]: 3.31 µM (active)
EC50 (BJ [8]): 21.1 µM (active)
EC50 [9]: 14.5 µM (active)

Oc1nnc(Sc2ncnc3sccc23)n1CCc1ccccc1
AC50 [10]: 16.6 µM (active)
AC50 [1]: 7.58 µM (active)
AC50 [3]: 17.3 µM (active)
AC50 [4]: 27 µM (active)
EC50 (Protein RecA): 18 µM (active)
AC50 [11]: > 380 µM (inactive)
CC50 [12]: 14.9 µM (active)
AC50 [7]: 18.1 µM (active)

CCN(CC)CCCNc1nc2ccccc2c2nc(-c3ccncc3)nn12
AC50 [13]: 40.4 µM (active)
AC50 [14]: 10.4 µM (active)
EC50 [15]: 16.5 µM (active)
EC50 [16]: > 91.2 µM (inactive)
EC50 (H4): > 120 µM (not active)
EC50 [17]: 32.5 µM (inactive)
AC50 [18]: 6.19 µM (active)

CN(Cc1ccc(F)cc1)C(=O)COc1ccc2ccccc2c1
IC50 (Beta-galactosidase): > 80 µM (inactive)

Oc1cc(C=NNc2ccccc2)nc(O)n1
IC50 (cells [19]): > 29.9 µM (inactive)
EC50 (cells [20]): > 29.9 µM (inactive)

Cc1cc(C)c2c(=O)n3c(nc2c1)C(CC(C)C)NC(=O)c1cc2ccccc2cc1-3 (centres undefined)
IC50 (Beta-galactosidase): > 80 µM (inactive)

CN1CCN(/C=N/c2sc3c(c2C#N)CCCCC3)CC1
EC50 [21]: 1.01 µM (active)
EC50 [22]: > 112 µM (not active)
EC50 [23]: > 60 µM (not active)
EC50 [24]: > 67.5 µM (inactive)
EC50 [25]: > 112 µM (not active)
